Publication PMC10791936, “Engineering allosteric inhibition of homoserine dehydrogenase by semi-rational saturation mutagenesis screening” (Frontiers in Bioengineering and Biotechnology, 2024)
Numbering of substitutions follows the chain as printed. Numbers in names are those of the source.

Tests used:
CgHSD [1] = target: T1, CgHSD (Corynebacterium glutamicum, UniProt P08499, A384D); assay: enzyme activity inhibition, NADPH formation; format: biochemical; conditions: allosteric; 50 mM L-isoleucine; stated gain
T1 construct: gene hom; full-length hom in pET-28a, N-terminal His6 tag, expressed in E. coli Transetta (DE3), Ni purified; homotetramer by SEC

CgHSD [2] = target: T2, CgHSD (Corynebacterium glutamicum, UniProt P08499); assay: enzyme activity inhibition, NADPH formation; format: biochemical; conditions: feedback inhibitor, allosteric; 5 mM L-isoleucine
T2 construct: gene hom; full-length hom in pET-28a, N-terminal His6 tag, expressed in E. coli Transetta (DE3), Ni purified; homotetramer by SEC

CgHSD [3] = target: T3, CgHSD (Corynebacterium glutamicum, UniProt P08499, G378E); assay: enzyme activity inhibition, NADPH formation; format: biochemical; conditions: allosteric; 50 mM L-isoleucine; stated gain
T3 construct: gene hom; full-length hom in pET-28a, N-terminal His6 tag, expressed in E. coli Transetta (DE3), Ni purified; homotetramer by SEC

CgHSD [4] = target: T4, CgHSD (Corynebacterium glutamicum, UniProt P08499, I397V); assay: enzyme activity inhibition, NADPH formation; format: biochemical; conditions: allosteric; 50 mM L-isoleucine; stated gain
T4 construct: gene hom; full-length hom in pET-28a, N-terminal His6 tag, expressed in E. coli Transetta (DE3), Ni purified; homotetramer by SEC

CgHSD [5] = target: T4, CgHSD; assay: enzyme activity inhibition, NADPH formation; format: biochemical; conditions: allosteric; 10 mM L-threonine; stated gain
CgHSD [6] = target: T3, CgHSD; assay: enzyme activity inhibition, NADPH formation; format: biochemical; conditions: allosteric; 50 mM L-threonine; stated gain
CgHSD [7] = target: T1, CgHSD; assay: enzyme activity inhibition, NADPH formation; format: biochemical; conditions: allosteric; 10 mM L-threonine; stated gain
CgHSD [8] = target: T2, CgHSD; assay: enzyme activity inhibition, NADPH formation; format: biochemical; conditions: feedback inhibitor, allosteric; 1 mM L-threonine
[9] = target: the molecule itself; assay: SEC; apparent molecular mass from a standard curve; peaks at 11.8 mL of elution volume; column and buffer not shown (Supplementary Figure S2)

T1 sequence (P08499 whole entry A384D): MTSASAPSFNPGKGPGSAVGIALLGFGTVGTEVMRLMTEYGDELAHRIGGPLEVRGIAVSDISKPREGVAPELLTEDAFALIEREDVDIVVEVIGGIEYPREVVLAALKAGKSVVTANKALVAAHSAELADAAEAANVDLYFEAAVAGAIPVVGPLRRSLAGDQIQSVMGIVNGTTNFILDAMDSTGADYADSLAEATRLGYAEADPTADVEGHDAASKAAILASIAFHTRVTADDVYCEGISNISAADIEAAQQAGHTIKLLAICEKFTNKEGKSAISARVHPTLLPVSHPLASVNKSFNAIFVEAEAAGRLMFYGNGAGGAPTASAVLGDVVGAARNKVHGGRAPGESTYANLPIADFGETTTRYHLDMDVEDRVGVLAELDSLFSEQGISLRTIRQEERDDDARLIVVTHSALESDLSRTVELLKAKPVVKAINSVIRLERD
T3 sequence (P08499 whole entry G378E): as the sequence (P08499 whole entry A384D) above, with G378E, D384A counted along it
T4 sequence (P08499 whole entry I397V): as the sequence (P08499 whole entry A384D) above, with D384A, I397V counted along it

What does the source list for CC[C@H](C)[C@H](N)C(=O)O [L-isoleucine]?
% activity maintained at 50 mM (CgHSD [1]): 76.5%; % activity loss at 5 mM (CgHSD [2]): > 75%; % activity maintained at 50 mM (CgHSD [3]): 61.0%; % activity maintained at 50 mM (CgHSD [4]): 50.1%

C[C@@H](O)[C@H](N)C(=O)O [L-threonine] was tested. Which “% activity kept at 10 mM” value (CgHSD [5]) did it give?
Its value is over 90%.

What about the “% retained activity at 50 mM” value (CgHSD [6]) of the same molecule?
Its value is 52.7%.

What about the “% activity kept at 10 mM” value (CgHSD [7]) of the same molecule?
Its value is over 90%.

What about the “% activity loss at 1 mM” value (CgHSD [8]) of the same molecule?
The value was over 80%.

B1: Homoserine dehydrogenase from Corynebacterium glutamicum (CgHSD), wild type (enzyme, Corynebacterium glutamicum ATCC 13032, UniProt P08499 1-445, looked up)
chain: MTSASAPSFNPGKGPGSAVGIALLGFGTVGTEVMRLMTEYGDELAHRIGGPLEVRGIAVSDISKPREGVAPELLTEDAFALIEREDVDIVVEVIGGIEYPREVVLAALKAGKSVVTANKALVAAHSAELADAAEAANVDLYFEAAVAGAIPVVGPLRRSLAGDQIQSVMGIVNGTTNFILDAMDSTGADYADSLAEATRLGYAEADPTADVEGHDAASKAAILASIAFHTRVTADDVYCEGISNISAADIEAAQQAGHTIKLLAICEKFTNKEGKSAISARVHPTLLPVSHPLASVNKSFNAIFVEAEAAGRLMFYGNGAGGAPTASAVLGDVVGAARNKVHGGRAPGESTYANLPIADFGETTTRYHLDMDVEDRVGVLAELASLFSEQGISLRTIRQEERDDDARLIVVTHSALESDLSRTVELLKAKPVVKAINSVIRLERD
notes: Homoserine dehydrogenase (hom gene) of Corynebacterium glutamicum ATCC 13032, amplified from genomic DNA into pET-28a (pET-hom); printed mass of the monomer 46.4 kDa; also called wild-type CgHSD
For B1, which “stoichiometry N” value [9] is on record?
The value was 4.

B2: Homoserine dehydrogenase from Corynebacterium glutamicum (CgHSD), I397V mutant (enzyme, Corynebacterium glutamicum ATCC 13032, UniProt P08499 1-445, looked up)
chain: B1 chain with I397V
How did the “stoichiometry N” value [9] turn out when B2 was run?
The value was 4.

B3: Homoserine dehydrogenase from Corynebacterium glutamicum (CgHSD), A384D mutant (enzyme, Corynebacterium glutamicum ATCC 13032, UniProt P08499 1-445, looked up)
chain: B1 chain with A384D
B3 was tested. Which “stoichiometry N” value [9] did it give?
Its value is 4.
